Measurements published in patent US7883859B2, “Method for producing active and stable acetylcholinesterase bioassay element” (priority 2005, dated 2011).

How the values were obtained:
[1] = tested on: acetylcholinesterase; experiment: Inhibition of the immobilized enzyme of the bioassay element by pesticides (FIG. 5); type: biochemical; conditions: for detection sensitivity of the bioassay element (rank among five pesticides; carbofuran>naled>malathion>carbaryl=trichlorfon): at any same concentration
Text: (§1) The bioassay element of the present invention is referred to FIG. 1 which illustrates the structure of bioassay element in one embodiment of the present invention. The bioassay element includes a carrier 100, an enzyme 110 as a testing material, and a coating film 120. The carrier includes a membrane 101 and a stationary layer 102 applying on the membrane 101. The enzyme 110 is dispersed in the coating film 120 that covers on the surface of the stationary layer 102. The coating film 120 effectively increases the amount of the immobilized enzyme 110 and raises the activity of the enzyme 110 and fixes the enzyme 110 on the surface of the carrier. In the working example of the present invention, the enzyme acetylcholinesterase is selected, and the coating film 120 consists of casein, calcium ions, a color developer (DTNB), and trehalose. The stationary layer 102 consists of casein and calcium ions.
In the working example of the present invention, the stationary-layer mixed solution was prepared by mixing 120 mM of a calcium ion solution and 2.5% of a casein solution in a ratio of 1:14 by volume. The bioassay solution was prepared by mixing an enzyme solution and the mixed solution containing casein in a ratio of 5:7 by volume. The enzyme solution was prepared by mixing 1.52 U/μl of an enzyme and 5% of trehalose in a ratio of 2.61:108 by volume. The mixed solution containing casein was mixed with a color developer, 120 mM of a calcium ion solution and 4% of a casein solution in a ratio of (0.009 to 0.012):1:(6 to 7.75) (w/v/v).
The results of the inhibiting effect of several pesticides (with different concentrations) on the bioassay element of the present invention are referred to FIG. 5. […] At the same concentration, the higher inhibition represents that the enzyme has higher detection sensitivity to pesticide. […] Within the linear relationship between the concentration of each pesticide and the inhibition of the enzyme, a biosensor capable of quantitatively detecting pesticides in association with optical sensors can be designed.
Therefore, if the inhibition of the enzyme activity is greater than 30%, it should be very easy to distinguish the yellow-color level difference by human eyes. In addition, when the concentration of naled was greater than 3.5 ppm and the concentrations of malathion, trichlorfon and carbaryl were greater than 7 ppm, the inhibition of the enzyme activity would be greater than 60%. Thus, the color would become colorless.

[2] = tested on: acetylcholinesterase; experiment: Color change of the bioassay element against pesticides, judged by human eyes (FIG. 6); type: biochemical; conditions: color changes from yellow to yellowish
Text: as §1
If the inhibition of the enzyme activity is greater than 60%, the color will become colorless. To discriminate the color change by human eyes, the concentrations of trichlorfon and carbaryl are about 3 ppm, malathion and naled are about 1 ppm, carbafuran is about 0.1 ppm.

SMILES	concentration dependence of inhibition of the enzyme activity [1]	detection sensitivity of the bioassay element (rank among five pesticides; carbofuran>naled>malathion>carbaryl=trichlorfon) [1]	inhibition of the enzyme activity ([1]; pesticide concentration 3 ppm)	concentration to discriminate the color change by human eyes [2]	concentration range with linear relationship between pesticide concentration and inhibition of the enzyme activity [1] [ppm]	pesticide concentration above which the increase of inhibition is plateau [1]	inhibition of the enzyme activity ([1]; pesticide concentration about 0.1 ppm) [%]	inhibition of the enzyme activity ([1]; pesticide concentration 1 ppm) [%]
CNC(=O)Oc1cccc2ccccc12 [carbaryl]	increased with increasing concentrations	lowest	about 28%	about 3 ppm				
CNC(=O)Oc1cccc2c1OC(C)(C)C2 [carbofuran]		highest		about 0.1 ppm	0 to 0.1	greater than 0.1 ppm	65	
CCOC(=O)CC(SP(=S)(OC)OC)C(=O)OCC (stereo not shown) [malathion]		next		about 1 ppm				28
COP(=O)(OC)OC(Br)C(Cl)(Cl)Br (stereo not shown) [naled]		next		about 1 ppm				39
COP(=O)(OC)C(O)C(Cl)(Cl)Cl (stereo not shown) [trichlorfon]	increased with increasing concentrations	lowest	about 28%	about 3 ppm				
